Patent US5750552A, “Imidazoline derivative, possible tautomer thereof, and vulnerary including such derivative or tautomer” (Arax Co., Ltd., priority 1995, dated 1998)

What was measured:
[1] = system: indomethacin-induced gastric ulcer; assay: Inhibitory effect on indomethacin-induced gastric ulcer; format: in vivo, SD rats; conditions: 30 mg/kg oral, 30 min before indomethacin
Experimental: Inhibitory effect on indomethacin-induced gastric ulcer
Male SD rats of 7-week age were fasted for 24 hours, with a fast of water beginning in early morning of the day when the experiments were performed. The rats were classified into groups each consisting of eight rats, such that all the groups have substantially the same average weight. Before giving indomethacine to the rats, the compounds of the Examples indicated in TABLE 5 were orally administered as specimen drugs to the rats, with a dose of 30 mg/kg. Thirty minutes later, indomethacin was orally administered to each specimen rat, with a dose of 25 mg/kg (1 mL/rat). Seven hours later, the specimen rats were sacrificed by ether, and the gastric mucosa of each rat was semi-fixed with 2% formalin. The longitudinal length of the damaged area of gastric mucosa was measured, and the anti-ulcer percent values of the individual specimen drugs were calculated on the basis of the sum of the measured length values of each group of specimen rats, in the same manner as in EXAMPLE 19.

[2] = system: acetic acid-induced gastric ulcer; assay: Healing effect on acetic acid-induced gastric ulcer of rat; format: in vivo, Donryu rat; conditions: 25 mg/kg oral two times a day, 10 days
Experimental: Healing effect on acetic acid-induced gastric ulcer of rat
A male Donryu rat of 7-week age was subjected to abdominal incision to expose the stomach, with pentobarbital used as an anesthesia. Using a metal ring having an inside diameter of 10 mm, 200 μL of glacial acetic acid was applied, for 60 seconds, with a serosa-side of a boundary area between the antrum and the corps. The abdomen of the specimen rat subjected to the glacial acetic acid was closed by an operation, and the rat was then fed in a normal way. The compound prepared in Example 2, that is, 2-(2-dimethylaminobenzylsulfinyl)-5,5-dimethylimidazoline-4-thione was used as the specimen drug. This compound was orally administered to the specimen rat two times a day (at 9:00 a.m. and 5:00 p.m.), each time with a dose of 25 mg/kg, beginning on the day following the day on which the glacial acetic acid was applied to the rat. The oral administration continued for 10 consecutive days, with a total of 20 administrations. On the day following the last day of the administration, the specimen rat was sacrificed by ether, and the ulcer portion of the rat was semi-fixed with formalin. The surface area of the ulcer portion was measured. The healing percent (%) calculated on the basis of the measured surface area was 40.8%.

[3] = system: wound in rat; assay: Healing effect on wound in rat; format: in vivo, SD rats; conditions: TABLE 7, 15 days; for Healing days: control 15.1 ± 0.22; for Healing Index: control 188.3 ± 18.2
Experimental: Healing Effect on wound in rat
Male 7-week SD rats were classified into groups each consisting of 6-7 rats, such that all the groups have substantially the same average weight. The experiment was performed on the rats according to a method of Tsurumi et al. (Oyo Yakuri, Vol. 7, pp833, 1973). Initially, the rats were subjected to an anesthesia with pentobarbital. The hair of the back of each rat was clipped, and the skin was disinfected with 70% ethanol. Then, the skin was lightly pulled and punched off in a direction from the right to the left by means of a punch whose diameter is 10 mm, so as to form two open wounds on portions of the back of the rat which are symmetrical to each other with respect to the center line of the back. The compounds of Examples indicated in the following TABLES 7 and 8 were used as specimen drugs, and orally administered once a day to each of the rats with doses indicated in the TABLES 7 and 8. The oral administration continued for 15 consecutive days, beginning from the first day when the wounds were formed on the back of each rat.
To clarify the healing effect on the wounds, an Healing Index and healing days were obtained in the following manner. Initially, the lengths of a major axis and a minor axis of each wound formed on the back were measured using calipers. On the basis of the measured length values, the area of each wound was calculated as the area of an ellipse. The Healing Index was obtained according to a method of Nakano et al. (Oyo Yakuri, Vol. 47, pp29, 1994). Described more specifically, a ratio of area of each wound was chronologically represented in a graph, and an area of the lower part of a curve in the graph during a period from the fifth day to the fifteenth day after the wounds were formed was obtained as the Healing Index. […] The healing days were obtained as the number of the days that were required for the wounds to be completely covered with regenerated epidermises. As for the wound that was healed in more than 15 days, the healing days were obtained as 16 days.

[4] = Single-dose toxicity study; format: in vivo; conditions: mouse, in vivo, oral, male ddY mice, two weeks
[5] = system: ddY mice; assay: Single-dose toxicity study; format: in vivo; conditions: oral, male ddY mice, two weeks
[6] = system: hydrochloric acid-ethanol-induced gastric ulcer; assay: Inhibitory effect on hydrochloric acid-ethanol-induced gastric ulcer; format: in vivo, SD rats; conditions: 30 mg/kg oral, 30 min before hydrochloric acid-ethanol
Experimental: Inhibitory effect on hydrochloric acid-ethanol-induced gastric ulcer
Male SD rats of 7-week age were fasted for 24 hours, with a fast of water beginning in early morning of the day when the experiments were performed. The rats were classified into groups each consisting of five rats, such that all the groups have substantially the same average weight. Before giving hydrochloric acid-ethanol to the rats, the compounds of the Examples indicated in TABLE 4 were orally administered as specimen drugs to the rats, with a dose of 30 mg/kg. Thirty minutes later, 1 mL of 98% ethanol containing 200 mM of hydrochloric acid was orally administered to each specimen rat. One hour later, the specimen rats were sacrificed by ether, and the gastric mucosa of each rat was semi-fixed with 2% formalin. The longitudinal length of the damaged area of the gastric mucosa was measured, and the anti-ulcer percent values of the individual specimen drugs were calculated on the basis of the sum of the measured length values of each group of the specimen rats, in the same manner as in Example 19.

[7] = system: water-immersion restraint stress-induced gastric ulcer; assay: Inhibitory effect on water-immersion restraint stress-induced gastric ulcer; format: in vivo, SD rats; conditions: 10 mg/kg oral, 30 min before stress
Experimental: Inhibitory effect on water-immersion restraint stress-induced gastric ulcer
Male 7-week SD rats were fasted for 24 hours, with a fast of water beginning in early morning of the day when the experiments were performed. The rats were classified into groups each consisting of five rats, such that all the groups have substantially the same average weight. Thirty minutes before giving a stress to the rats, the compounds of the Examples indicated in TABLE 3 were orally administered as specimen drugs to the rats, with a dose of 10 mg/kg. The rats were then kept in stress cages, and were given a stress by immersing the cages in a water bath kept at a substantially constant temperature of 23°±1° C., such that the water level was at the height of the xiphoid of the rats. Seven hours later, the specimen rats were sacrificed by ether, and the gastric mucosa of each rat was semi-fixed with 2% formaline. The longitudinal length of the damaged area of the gastric mucosa was measured. A sum of the measured length values of the rats of each group was calculated as an ulcer index. An anti-ulcer or ulcer inhibitory percent (%) was calculated as {1-(ulcer index of each group of specimen rats)/(ulcer index of non-specimen group)}×100.

[8] = system: gastric acid secretion in a pylorus ligated rat; assay: Inhibitory effect on the gastric acid secretion in a pylorus ligated rat; format: in vivo, SD rats; conditions: 10 mg/kg intraduodenal; 4 hours
Experimental: Inhibitory effect on the gastric acid secretion in a pylorus ligated rat Male 7-week SD rats were fasted for 24 hours, with a fast of water beginning in early morning of the day when the experiments were performed. The rats were classified into groups each consisting of five rats, such that all the groups have substantially the same average weight. The experiments were performed according to a method of Shay et. al. (Shay, H. et. al., Gastroenterology, Vol. 5, pp43, 1945). Described more specifically, each of the rats was subjected to a light anesthesia by ether, and the hair of the abdomen of each rat was clipped. Then, the abdomen was incised over a length of 1.5 cm along the center line downwards from a portion 1 cm below the xiphoid of the rat, and the stomach was taken out of the body. A portion connecting the pylorus and the duodenum was ligated by suturing thread. […] After the administration, the skin of the abdominal muscle and abdomen was sutured. The rats were kept in cages and fasted for 4 hours with a fast of water. Then, the rats were sacrificed by ether, and the stomach of each rat was removed. The gastric content was obtained from a small hole formed through the stomach of each rat and was collected in a test tube. […] An amount of supernatant was measured as a volume of gastric acid, and a total acidity of the gastric acid was also measured. A volume of gastric acid inhibitory percent (%) and a total acidity inhibitory percent (%) were calculated in the same manner as the ulcer inhibitory percent was calculated. The total acidity was obtained as a product of the amount of gastric acid secreted for 4 hours and the acidity per 1 mL of the gastric acid which was subjected to neutralization titration by an aqueous solution of 0.01N sodium hydroxide.

SMILES | Inhibitory Percent (ulcer) [1] [%] | healing percent (ulcer surface area) [2] [%] | Healing days ([3]; 50 mg/kg oral once a day) [days] | Healing Index ([3]; 50 mg/kg oral once a day) | Healing days ([3]; 100 mg/kg oral once a day) [days] | Healing Index ([3]; 100 mg/kg oral once a day) | LD50 at 336 h [4] [mg/kg] | LD50 95% confidence limits [5] [mg/kg] | Inhibitory Percent (ulcer) [6] [%] | Inhibitory Percent (ulcer) [7] [%] | Total acidity Inhibitory percent [8] [%] | Volume of Gastric acid Inhibitory percent [8] [%]
CN(C)c1ccccc1C[S+]([O-])C1=NC(C)(C)C(=S)N1 (stereo not drawn) [Example 2, 2-(2-dimethylaminobenzylsulfinyl)-5,5-dimethylimidazolin-4-thione] | 100 | 40.8 | 13.8 ± 0.39 | 153.0 ± 13.2 | 14.6 ± 0.44 | 146.7 ± 12.4 | 952 | 791 to 1138 | – | – | – | –
CC1(C)N=C([S+]([O-])Cc2cccc3cccnc23)NC1=S (stereo not drawn) [Example 4, 2-(8-quinolinylmethylsulfinyl)-5,5-dimethylimidazolin-4-thione] | – | – | – | – | – | – | – | – | 90.3 | – | – | –
CCN(C)c1ccccc1C[S+]([O-])C1=NC(C)(C)C(=S)N1 (stereo not drawn) [Example 15, 2-(2-N-ethyl-N-methylaminobenzylsulfinyl)-5,5-dimethylimidazolin-4-thione] | 99.2 | – | – | – | – | – | – | – | 97.4 | 99.9 | 91.3 | 60.1
CCC1(C)N=C([S+]([O-])Cc2ccccc2N(C)C)NC1=S (stereo not drawn) [Example 16, 2-(2-dimethylaminobenzylsulfinyl)-5-ethyl-5-methylimidazolin-4-thione] | 97.2 | – | – | – | – | – | – | – | 98.6 | – | 77.4 | 41.6
